Tested on: person two with long-standing TD
Experiment: Finger Tapping (Case 1)
Assay type: in vivo, human
Details: ON drug, higher score better
Description: The following tables report on the results of the neuropsychological tests (Drug I is memantine and Drug II is acamprosate): […]

Which results are given for `CC12CC3CC(C)(C1)CC(N)(C3)C2` [memantine]?
Finger Tapping DH: DH = 59.3; Finger Tapping NDH: NDH = 48.5
